Entries after “also recorded” stand apart in the source; their conditions may differ.
What was measured:
[1] = tested on: RARβ; assay: RT-PCR of RARβ in RA-treated ES cells; assay type: cell-based, mouse; conditions: WT ES cells, presence of RA vs untreated
Experimental: (§1) Mouse J1 wild-type FS cells were cultured as described previously (27). C57BL/6 RARβ heterozygous mice were provided by Dr. Pierre Chambon (Strasbourg-Cedex, France) (26). Homozygous RARβ-null mice were obtained following mating of RARβ heterozygous mice. Blastocysts were harvested on day E3.5 and individually cultured on ES cell medium as previously described (28). Various markers for endodermal (day 5), pancreatic progenitor (day 11), endocrine progenitor (day 14) and endocrine (day 17) differentiation were analyzed by semi-quantitative RT-PCR in J1 wild-type and RARβ KO ESCs. Primers were designed around introns whenever possible. Total RNA extraction, semi-quantitative and quantitative PCR reactions were performed as previously described (18). Amplified PCR products were resolved on 1.5% agarose gels and visualized by staining with ethidium bromide. PCR bands were sequenced for verification of the correct amplicon. Quantitation of semi-quantitative gels was performed using ImageJ software (National Institutes of Health) from three experimental biological repeats.

[2] = tested on: Cyp26a1; assay: RT-PCR of Cyp26a1 in RA-treated WT and RARβ KO ES cells; assay type: cell-based, mouse
Experimental: as §1

[3] = tested on: hepatocyte lipid accumulation; assay: Hematoxylin and eosin staining of liver sections (hepatic steatosis); assay type: in vivo; conditions: HF diet mice 4 months + AC261066 or CD1530; vs HF-vehicle
Source text: (§2) WT male C57/BL6 male mice were maintained on either a standard laboratory chow-fed diet (CFD) with 13% kcal fat, (diet #5053, Lab Diet, Inc, St. Louis, Mo.) or a high fat, western style diet (HFD) with 60% kcals from fat, (diet #58126, Lab Diet, Inc., St. Louis, Mo.) for 4 months. One month after the start of the high fat diet treatment, the high fat diet group was further split into 2 groups for 3 months: i) high fat diet and the drinking water containing 1% DMSO; ii) high fat diet and the drinking water containing 1.5 mg/100 ml AC261066, a specific RARβ agonist. Then mice were sacrificed by cervical dislocation. Blood and various tissue samples were harvested.
At sacrifice, fresh mouse liver samples were fixed in 4% formaldehyde solution for 24 hr and embedded in paraffin blocks. Liver paraffin sections were cut 5 microns thick and mounted on glass slides and stained with hematoxylin and eosin (H and E) using standard protocols.

[4] = tested on: hepatic lipids; assay: Oil red O staining of liver sections; assay type: in vivo; conditions: HF diet mice + AC261066 or CD1530; vs HF-vehicle
Source text: as §2
Staining. Fresh mouse liver samples were embedded in optimal cutting temperature (OCT) medium and immediately frozen to −70 centigrade. Cryosections were then fixed in 4% formaldehyde for 1 hr at room temp. Slides were then rinsed three times in deionized water (dH2O) for 30 s, followed by treatment with 0.5% Triton X-100 in PBS for 5 min. Sections were then washed three times with PBS for 5 min. Samples were with incubated 2% bovine serum albumin (BSA) for 30 min at room temperature to block for unspecific antibody binding. Following blocking, sections were washed three times in PBS and incubated with mouse monoclonal antibody against α-SMA (1:500) (Dako, Inc) for 24 h at 4° C. […]

[5] = tested on: α-SMA; assay: α-SMA immunofluorescence of liver sections (hepatic stellate cell activation); assay type: in vivo; conditions: HF diet mice + AC261066 or CD1530; vs HF-vehicle
Source text: as §2
Staining. Fresh mouse liver samples were embedded in optimal cutting temperature (OCT) medium and immediately frozen to −70 centigrade. Cryosections were then fixed in 4% formaldehyde for 1 hr at room temp. Slides were then rinsed three times in deionized water (dH2O) for 30 s, followed by treatment with 0.5% Triton X-100 in PBS for 5 min. Sections were then washed three times with PBS for 5 min. Samples were with incubated 2% bovine serum albumin (BSA) for 30 min at room temperature to block for unspecific antibody binding. Following blocking, sections were washed three times in PBS and incubated with mouse monoclonal antibody against α-SMA (1:500) (Dako, Inc) for 24 h at 4° C. After 24 h sections were washed three times in PB and incubated with Alexa-Flour-488 anti-mouse secondary anti-body (1:500) (Invitrogen, Inc) for 30 min at room temperature. Sections were then washed three times in PBS and incubated with working strength oil-red O solution for 30 minutes at room temperature. Sections were then rinsed for 30 minutes under running tap water and cover-slipped with Vectashield hard mount plus DAPI (Vector Labs, Inc).

[6] = tested on: SREBP1-c; assay: Semi-quantitative PCR liver, SREBP1-c; assay type: in vivo; conditions: HF diet mice + AC261066 or CD1530
Source text: as §2
(§3) Total RNA was extracted from mouse tissues using TRIzol reagent (Life technologies) and (1 μg) was used to synthesize cDNA. cDNA synthesis was performed at 42° C. for 1 h in a final volume of 20 μl using qScript (Quanta, MD). Semi-quantitative PCR were performed Taq DNA polymerase (Invitrogen, CA). Three step PCR was run as follows: 94° C. for 30 s, 58-64° C. for 45 s for primer annealing and 72° C. for 1 min for primer extension. The number of cycles for each primer pair for amplification in the linear range was determined experimentally. PCR products were resolved 2% agarose gels and visualized by staining with ehtidium bromide. Primers for gene expression used were as follows: […]

[7] = tested on: MCP-1; assay: Semi-quantitative PCR liver, MCP-1; assay type: in vivo; conditions: HF diet mice + AC261066 or CD1530
Source text: as §2, §3

[8] = tested on: TNF-α; assay: Semi-quantitative PCR liver, TNF-α; assay type: in vivo; conditions: HF diet mice + AC261066 or CD1530
Source text: as §2, §3

[9] = tested on: retinyl palmitate and retinol; assay: HPLC analysis of liver retinoids; assay type: in vivo, mice
Source text: as §2
The frozen liver tissue samples (˜100 mg) were homogenized in 500 μl cold phosphate-buffered saline (PBS). In addition, 100 μl serum was diluted in cold PBS to total volume of 500 μl. Retinyl acetate was added to each sample before the retinoid extraction for the calculation of extraction efficiency. The retinoids were extracted into 350 μl of organic solution (acetonitrile/butanol, 50:50, v/v) in the dark. The high performance liquid chromatography (HPLC) was performed using a Waters Millennium system (Waters). Each sample (100 μl of the 350 μl) was loaded onto an analytical 5-μm reverse phase C18 column (Vydac, Hesperia, Calif.) and eluted at a flow rate of 1.5 ml/min. Two mobile phase gradient systems were used. Retinoids were identified by HPLC based on two criteria: an exact match of the retention times of unknown peaks with those of authentic retinoid standards and identical UV light spectra (220-400 nm) of unknowns against spectra from authentic retinoid standards during HPLC by the use of a photodiode array detector. The amounts of retinoids were calculated from the areas under the peaks detected at the wave-length of 325 nm. The levels of retinol and retinyl esters were normalized to the tissue weight.

[10] = tested on: renal lipid accumulation; assay: Hematoxylin and eosin staining of kidney sections; assay type: in vivo; conditions: HF diet mice + AC261066 or CD1530; vs HF-vehicle
Source text: as §2
At sacrifice, fresh mouse liver samples were fixed in 4% formaldehyde solution for 24 hr and embedded in paraffin blocks. Kidney paraffin sections were cut 5 microns thick and mounted on glass slides and stained with hematoxylin and eosin (H and E) using standard protocols.

[11] = HF diet mice + AC261066 or CD1530 vs controls

Row | Compound | RARβ transcript signal [1] | Cyp26a1 expression [2] | hepatocyte lipid infiltration / hepatic steatosis (H and E) [3] | hepatic lipid accumulation (oil red O) [4] | α-SMA positive staining in liver (HSC activation) [5] | mRNA levels of SREBP1-c in liver [6] | mRNA levels of MCP-1 in liver [7] | mRNA levels of TNF-α in liver [8] | liver retinol compared to controls [9, 11] | liver retinyl palmitate compared to controls [9, 11] | retinyl palmitate levels in the liver lower than HF-vehicle treated mice ([9]; HF diet mice + CD1530) | renal lipid infiltration/accumulation (H and E) [10]
1 | CC1=C(/C=C/C(C)=C/C=C/C(C)=C/C(=O)O)C(C)(C)CCC1 [RA, all trans-retinoic acid] | stronger RARβ signal | RA-dependent Cyp26a1 expression was observed in both WT and RARβ KO ES cells | – | – | – | – | – | – | – | – | – | –
2 | O=C(O)c1ccc(-c2ccc3cc(O)c(C45CC6CC(CC(C6)C4)C5)cc3c2)cc1 [CD1530] | – | – | no decrease in hepatic lipid accumulation | not observed; also recorded: no evidence decreased lipid accumulation | no evidence decreased lipid accumulation or α-SMA expression intensity or patterns | markedly higher | markedly elevated | markedly elevated | significantly lowered | significantly lowered | ~48% | no decrease in renal lipid accumulation
